# Paper PMC6892255, “Identification of a potent small-molecule inhibitor of bacterial DNA repair that potentiates quinolone antibiotic activity in methicillin-resistant Staphylococcus aureus^” (Bioorganic & Medicinal Chemistry, 2019)
# “Also recorded” adds a separate entry of the source.
# System: SOS response in JE2 cells
# Assay: SOS reporter assay (GFP under control of the recA promoter)
# Assay type: cell-based, Staphylococcus aureus
# Details: for SOS response (normalized GFP fluorescence/cell): JE2 recA-GFP reporter, SOS activated with CFX (10 µM), titration of compound
# Description: A SOS reporter system was generated by transformation of JE2 cells with a plasmid containing GFP under control of the recA promoter. Activation of the SOS response in these cells results in expression of GFP which can be monitored by fluorescence intensity. […] IMP-1700 (10) was coupled with N-Boc-ethylenediamine to afford amide 19, followed by removal of the Boc group in 4 M HCl/dioxane and purification using strong cation exchange resin. The resulting free amine 20 was coupled to N-hydroxysuccinimide (NHS)-activated Sepharose resin at 4 °C overnight (Figure 2C), and the remaining NHS sites quenched in Tris buffer. SoluBL21 competent E. coli were transformed with pET28b^+ containing StrepII-tagged AddA and hexahistidine-tagged AddB, and expression induced overnight at 16 °C. […] Beads were washed three times with lysis buffer and bound protein eluted with SDS-PAGE sample buffer, followed by PAGE separation. […]
# JE2 transformed with SOS-inducible pCN34 PrecA-gfp reporter plasmid expressing GFP under the control of the recA promoter were grown to late stationary phase at 37 °C in MHB containing kanamycin (90 μg/mL). Stationary phase JE2 culture (1 mL) was centrifuged (17,000 × g, 2 min), the supernatant removed and cells resuspended in assay media (12.5 µM […]
# concentration was maintained >12.5 µM and DMSO concentration maintained at 1.5% (v/v).
# JE2 culture (20 uL) was added to inhibitor solutions (180 µL) to a final cell density of 4 x 10^7 CFU/mL and samples incubated in a M200-PRO microplate reader (Tecan) at 37 °C with 700 rpm agitation for 17 h. GFP fluorescence intensity and OD600 were measured at 15 min intervals. Measurements were background corrected against no-inocula control and normalized to no-test inhibitor control at mid-exponential growth phase (4.5 h) for dose-response analysis. […]
compound,measurement,setting,value
O=C(O)c1cn(C2CC2)c2cc(N3CCN(C(=S)Nc4ccc(C(F)(F)F)cc4)CC3)c(F)cc2c1=O [Compound 10],Effect on cell number (OD600) in SOS reporter assay,JE2 recA-GFP reporter with CFX (10 µM),decrease in cell number at low micromolar concentrations
same,SOS response (normalized GFP fluorescence/cell),,decreased
same,SOS response (normalized GFP fluorescence/cell),listed as IMP-1700,decreased normalized GFP fluorescence/cell; also recorded: decreased SOS response
